The text below walks through data of US20060199870A1, “Method for producing aqueous ortho-phthalaldehyde solutions” (DSM Fine Chemicals Austria Nfg GmbH & Co KG, priority 2005, published 2006).

A short description of this series: Solubility / attainable concentration of OPA in aqueous solution. Format: physicochemical. The text has this:
According to the invention, sufficient acetal is introduced into water and dissolved, so that after acidifying, a 0.025 to 9% strength by weight aqueous OPA solution is obtained. Preference is given to 0.05 to 5% strength by weight solutions, particularly preferably 0.5 to 2% strength by weight solutions.
It is advantageous in the inventive method that, compared with the use of OPA itself, more highly concentrated solutions (9% compared with 5%) can be produced, since the alcohol eliminated by the acidification favors the dissolution of the OPA formed.
In addition, if desired, the alcohol being eliminated can be removed from the solution by distilling it off, as a result of which, however, the solubility is reduced again to 5%.

Regarding `O=Cc1ccccc1C=O` [OPA, ortho-phthalaldehyde], the solubility (aqueous solution after the eliminated alcohol is distilled off) was found to be 5%. Besides, the “attainable concentration of aqueous OPA solution” value is, setting by setting: (solution produced from OPA acetal, alcohol eliminated by the acidification remains in solution) 9%; (use of OPA itself dissolved in water) 5%.
